Test results from patent US11103564B2, “Compositions for the inhibition of Giardia lamblia” (INSTITUT NATIONAL DE LA RECHERCHE AGRONOMIQUE, priority 2014, dated 2021).
Read-outs that look alike come from different tables or passages of the source.

Assays:
G. lamblia trophozoites [1] = test: In vitro G. lamblia growth inhibition assay; assay type: cell-based, Giardia lamblia; conditions: for IC50: KM-FCS; for inhibitory activity on G. lamblia growth: KM-FCS culture medium, without BSH
[2] = system: Giardia trophozoite cultures; test: Screening of lactobacilli strain supernatants for G. lamblia growth inhibition; assay type: cell-based, Giardia lamblia; conditions: supernatant, 24 h at 37° C., with bovine bile 0.6 g/L
Procedure: The inhibitory effect on G. lamblia growth of different lactobacilli strains was screened (cf. table 5). Bacterial supernatant was co-incubated for 24 h at 37° C. with Giardia trophozoite cultures (triplicates), with or without bovine bile (0.6 g/L). […] Table 5 indicates the corresponding internal and official references of the bacterial strains, and bibliographic references.

G. lamblia trophozoites [3] = test: Effect of recombinant LjLa1 BSH on Giardia trophozoites cultures; assay type: cell-based, Giardia lamblia
[4] = assay type: biochemical
[5] = BSH activity on taurodeoxycholic / glycodeoxycholic LB agar; assay type: biochemical; conditions: taurodeoxycholic (0.3%) and glycodeoxycholic (0.3%) LB agar, 48 h at 37° C.
G. lamblia WB clone C6 = test: In vivo effect of BSH-47 against G. lamblia in neonatal mice; conditions: daily gavage day 10 to 15, vs PBS
Procedure: FIG. 13: G. lamblia trophozoites count in the small intestine. Mice were challenged with the trophozoites of G. lamblia WB clone C6 (10^5 trophozoites per animal) at day 10 Animals were treated either with PBS or BSH-47 at 1 μg/ml (0.5 μg per mice), 10 μg/ml (5 μg per mice) or 100 μg/ml (50μg/mice) by daily intragastric gavage until day 15 (n=10 to 11/group). Values are mean±SEM; p<0.05.
Solutions of recombinant BSH-47 solutions (1 μg/ml, 10 μg/ml and 100 μg/ml diluted in NaHCO3 16.4%) were thawed and daily administered by intragastric gavage to neonatal mice (dose were respectively […] per mice) from day 10 to day 15 (day of sacrifice). Control animals received PBS instead of BSH.

[6] = absence of LjLa1sn, trophozoites growth inhibition, read-out: IC50 +/− SD, with culture medium only
[7] = presence of LjLa1sn, read-out: IC50 +/− SD, with bacterial spent culture medium
[8] = Giardia duodenalis, absence of LjLa1sn, trophozoites growth inhibition, read-out: IC50 +/− SD, with culture medium only
[9] = Giardia duodenalis, presence of LjLa1sn, read-out: IC50 +/− SD, with bacterial spent culture medium
[10] = 0.0001 μg/ml to 10 μg/ml, presence of bovine bile (0.06 g/L)

Question: Which IC50 (G. lamblia trophozoites [1]; [6]) does the source give for C[C@H](CCC(=O)O)[C@H]1CC[C@H]2[C@@H]3[C@H](O)C[C@@H]4C[C@H](O)CC[C@]4(C)[C@H]3C[C@H](O)[C@]12C [C, Cholate] here?
Answer: The IC50 was greater than 400 µM.

Question: What about the IC50 (G. lamblia trophozoites [1]; [7]) of the same molecule?
Answer: Its IC50 is greater than 400 µM.

Question: What does the source list for C[C@H](CCC(=O)O)[C@H]1CC[C@H]2[C@@H]3[C@H](O)C[C@@H]4C[C@H](O)CC[C@]4(C)[C@H]3CC[C@]12C [CDC, Chenodesoxycholate]?
Answer: IC50 (G. lamblia trophozoites [1]; [8]): 147 µM; IC50 (G. lamblia trophozoites [1]; [9]): 118 µM

Question: Which IC50 (G. lamblia trophozoites [1]; [8]) does the source give for CC(=O)O[C@H]1C[C@@]2(C)[C@@H](C[C@@H](O)[C@H]3[C@@]4(C)CC[C@@H](O)[C@@H](C)[C@@H]4CC[C@@]32C)/C1=C(\CCC=C(C)C)C(=O)O [FA, Fusidic acid] here?
Answer: Its IC50 is 26 µM.

Question: Which IC50 (G. lamblia trophozoites [1]; [8]) does the source give for C[C@H](CCC(=O)NCC(=O)O)[C@H]1CC[C@H]2[C@@H]3[C@H](O)C[C@@H]4C[C@H](O)CC[C@]4(C)[C@H]3C[C@H](O)[C@]12C [GC, Glycocholate] here?
Answer: The IC50 was greater than 400 µM.

Question: What about the IC50 (G. lamblia trophozoites [1]; [9]) of the same molecule?
Answer: Its IC50 is greater than 400 µM.

Question: What does the source list for C[C@H](CCC(=O)NCC(=O)O)[C@H]1CC[C@H]2[C@@H]3[C@H](O)C[C@@H]4C[C@H](O)CC[C@]4(C)[C@H]3CC[C@]12C [GCDC, Glycochenodesoxycholate]?
Answer: IC50 (G. lamblia trophozoites [1]; [8]): > 400 µM; IC50 (G. lamblia trophozoites [1]; [9]): 110 µM; inhibitory activity on G. lamblia growth (G. lamblia trophozoites [1]): no inhibitory activity

Question: Which results are given for C[C@H](CCC(=O)NCC(=O)O)[C@H]1CC[C@H]2[C@@H]3CC[C@@H]4C[C@H](O)CC[C@]4(C)[C@H]3C[C@H](O)[C@]12C [GDC, Glycodesoxycholate]?
Answer: IC50 (G. lamblia trophozoites [1]; [8]): > 400 µM; IC50 (G. lamblia trophozoites [1]; [9]): 104 µM; inhibitory activity on G. lamblia growth (G. lamblia trophozoites [1]): no inhibitory activity

Question: Which results are given for C[C@H](CCC(=O)NCCS(=O)(=O)O)[C@H]1CC[C@H]2[C@@H]3[C@H](O)C[C@@H]4C[C@H](O)CC[C@]4(C)[C@H]3CC[C@]12C [TCDC, Taurochenodesoxycholate]?
Answer: IC50 (G. lamblia trophozoites [1]; [8]): > 400 µM; IC50 (G. lamblia trophozoites [1]; [9]): 115 µM; inhibitory activity on G. lamblia growth (G. lamblia trophozoites [1]): no inhibitory activity

Question: For C[C@H](CCC(=O)NCCS(=O)(=O)O)[C@H]1CC[C@H]2[C@@H]3CC[C@@H]4C[C@H](O)CC[C@]4(C)[C@H]3C[C@H](O)[C@]12C [TDC, Taurodesoxycholate], which “inhibitory activity on G. lamblia growth” value (G. lamblia trophozoites [1]) is on record?
Answer: The value was “no inhibitory activity”.

Question: And the IC50 (G. lamblia trophozoites [1]; [6])?
Answer: Its IC50 is greater than 400 µM.

Question: And the IC50 (G. lamblia trophozoites [1]; [7])?
Answer: Its IC50 is 79 µM.

Question: Which IC50 (G. lamblia trophozoites [1]; [6]) does the source give for Desoxycholate [DC] here?
Answer: Its IC50 is 132 µM.

Question: What about the IC50 (G. lamblia trophozoites [1]; [7]) of the same molecule?
Answer: Its IC50 is 117 µM.

Question: For Lactobacillus acidophilus, which “inhibitory effect on G. lamblia growth” value [2] is on record?
Answer: Its value is “potent inhibitors”.

Question: Which “inhibitory effect on G. lamblia growth” value [2] does the source give for Lactobacillus reuteri here?
Answer: The value was “potent inhibitors”.

B1: BSH-56: recombinant L. johnsonii La1 bile-salt hydrolase LJ0056 produced as BSH-47 (protein)
chain: MCTGLRFTDDQGNLYFGRNLDVGQDYGEGVIITPRNYPLPYKFLDNTTTKKAVIGMGIVVDGYPSYFDCYNEDGLGIAGLNFPHFAKFSDGPIDGKINLASYEIMLWVTQNFTHVSEVKEALKNVNLVNEAINTSFAVAPLHWIISDSDEAIIVEVSKQYGMKVFDDKVGVLTNSPDFNWHLTNLGNYTGLNPHDATAQSWNGQKVAPWGVGTGSLGLPGDSIPADRFVKAAYLNVNYPTAKGEKANVAKFFNILKSVAMIKGSVVNDQGKDEYTVYTACYSSGSKTYYCNFEDDFELKTYKLDDHTMNSTSLVTY
modifications: Lactobacillus johnsonii BSH-56
Question: What does the source list for B1?
Answer: inhibitory effect on G. lamblia trophozoites (G. lamblia trophozoites [3]; [10]): strong inhibitory effects; inhibitory effect on G. lamblia trophozoites (G. lamblia trophozoites [3]; without bovine bile): no inhibitory effect; Specific activity ([4]; glycine release): 0.536 μmole of glycine/5 min at 37°; Specific activity ([4]; taurine release): 2.604 μmole taurine/5 min at 37° C./

B2: BSH-47: recombinant L. johnsonii La1 bile-salt hydrolase LJ1147 produced in E. coli, His-Tag purified (protein)
chain: MCTSILYSPKDNYFGRNLDYEIAYGQKVVITPRNYQLNYRHLPTQDTHYAMIGVSVVANDYPLYCDAINEKGLGIAGLNFTGPGKYFSVDESKKNVTSFELIPYLLSNCETIEDVKKLLSETNITDESFSKDLPVTTLHWLMGDKSGKSIVIESTETGLHVYDNPVNTLTNNPVFPAQVETLANFASVSPAQPKNTLVPNADINLYSRGLGTHHLPGGTDSNSRFIKASFVLAHSPKGNDEVENVTNFFHVLHSVEQAKGTDEVEDNVFEFTMYSDCMNLDKGILYFTTYDNNQINAVDMNNEDLGTSDLITYELFKDQAIKFEN
modifications: His-tag; Lactobacillus johnsonii BSH-47
notes: recombinant L. johnsonii La1 bile-salt hydrolase LJ1147 produced in E. coli, His-Tag purified
Question: What does the source list for B2?
Answer: inhibitory effect on G. lamblia trophozoites (G. lamblia trophozoites [3]; [10]): strong inhibitory effects; effect on Giardia trophozoites cultures (G. lamblia trophozoites [3]; 0.96 U, with bovine bile (0.06 g/L)): exhibits an inhibiting effect; inhibitory effect on G. lamblia trophozoites (G. lamblia trophozoites [3]; without bovine bile): no inhibitory effect; substrate specificity on agar [5]: taurospecific; parasite load in the small intestine (G. lamblia WB clone C6; 100 μg/ml group): significant reduction; trophozoites load in the small intestine (G. lamblia WB clone C6; all groups: 1, 10 and 100 μg/ml): reduction in trophozoites load; Specific activity ([4]; glycine release): 0.066 μmole of glycine/5 min at 37°; Specific activity ([4]; taurine release): 0.717 μmole taurine/5 min at 37° C./
